Data reported in patent US7485661B2, “Heterobicyclic pyrazole derivatives as kinase inhibitors” (Pfizer Italia S.r.l., priority 2005, dated 2009).

- melting point: 231 to 233 °C
Structure (SMILES): CCOC(=O)c1cc2[nH]nc(N)c2s1 [Compound 6, Ethyl 3-amino-1H-thieno[3,2-c]pyrazole-5-carboxylate]
